Results on two compounds are retold here after patent publication US10259815B2, “Gabaergic ligands and their uses” (UWM Research Foundation, Inc., priority 2015, dated 2019).

For series [1], the target named is T1, α1, β3, γ2 GABA A receptor (Homo sapiens, UniProt P14867+P18507).
T1 construct: host or cells: HEK-293, stably transfected
Put plainly: FLIPR functional assay, α1 GABAA receptor subtype in HEK-293 cells. Type of series: cell-based. The text has this: The FLIPR functional assay is used to determine the EC50 at the α1 and α3 GABAA receptor subtypes. A high EC50 for the α1 subtype would indicate a low chance of adverse effects, including sedation, ataxia, and muscle relaxation. A low α3 EC50 would indicate potential effectiveness as an anxiolytic, antihyperalgesic, and likely an anticonvulsant. See, for example, Liu et al. (Assay. Drug. Dev. Technol. 2008, 6, 781-6) and Joesch et al. (J. Biomol. Screen. 2008, 13, 218-28).
Compounds tested were synthesized internally and solubilized in DMSO at a 10 mM concentration. GABA was purchase from Sigma (#A2129) and prepared at 100 mM in water.
HEK-293 cells were stably transfected with the α1, β3, γ2 GABA A receptor subunits (GenBank accession numbers NM_000806.3, NM_000814.5, and NM_198904.1, respectively) or α3, β3, γ2 (NM_000808 for α3) where obtained from ChanTest Co. (Catalog # CT6216 and CT6218, respectively).
Cells were cultivated in Dulbeco's Modified Eagle's Medium (DMEM, Sigma D5796) supplemented with 10% Fetal Bovine Serum (FBS, Gibco 16000), 0.5 mg/mL Geneticin (Gibco), 0.04 mg/mL Hygromycin B (Gibco), 0.1 mg/mL Zeocin (Gibco) and 20 mM HEPES (Sigma). Cells were grown at 37° C. in a humidified atmosphere of 5% CO2. In the experiments described here frozen cells were used. For this purpose, cells were gown and maintained under confluency during 2-3 weeks and then frozen down at different cell densities using Recovery™ Cell Culture Freezing Medium (Gibco).
18 hours prior to the experiment, cells were quickly thawed at 37° C. and seeded on Poly-D-Lys 384 plates (Corning 356663) at a density of 25,000 cells/well and in 25 μL of complete cell medium as described above.
Membrane potential changes induced by the flux of ions through the receptor were measured as relative fluorescence units (RFU) using the Fluorometric Imaging Plate Reader (FLIPR Tetra®, Molecular Devices) and the FLIPR Membrane Potential Blue Assay kit (Molecular Devices). Prior to the addition of the compounds the medium was removed and cells were loaded with 20 μL of dye prepared in assay buffer composed of Hank's Balanced Salt Solution (HBSS with Ca^+2 and Mg^+2; Gibco 14025) with 20 mM Hepes. After 1 hour of incubation at room temperature (RT), the plate was placed into the FLIPR instrument and experiments were run adding first 10 μL from the 1st addition plate (compound plate) and after a 3 minutes incubation adding 20 μL of the 2nd addition or agonist plate. The response to this last GABA addition was monitored for another 3 minutes. […]
Data Analysis. The difference between the maximum and the minimum (Max-Min) fluorescence reached during the first addition or read interval and the second read interval were used for data analysis (agonist and potentiation, respectively). […]

Series [2] can be described thus: Liver microsomal stability, dog. Particulars: for Dog Liver microsome stability (reported in % remaining): 37° C., 4 μM compound, 30 minutes. It counts as in vitro ADME. As to the method: In vitro metabolism studies were done in mouse, rat, human, and dogs cells (TABLE 2).
In vitro liver microsomal studies were completed to measure the stability of the compounds against degradation in various species' liver microsomes.
Compound was incubated in hepatic microsomes over a 30-minute incubation period at 37° C. Incubations both with and without NADPH (2 mM) were performed in a 96-well plate format. The reaction was initiated with the addition of substrate and was terminated by protein precipitation. All incubations were performed using a final substrate concentration of 4 μM in 50 mM sodium phosphate buffer, pH 7.4. The final organic solvent content was 0.5% acetonitrile and 0.02% DMSO. The amount of enzyme present was fixed at 1.11 mg/mL protein irrespective of the species of microsomes used. Samples were analyzed by LC/MS-MS to determine the percent loss in the NAPDH incubations relative to the NADPH free incubations.

In series [3] the test system is Rats. As to the kind of experiment: Food-maintained operant responding (rate response). Type of series: in vivo. Particulars: three-assay comparison. How it is done: Food-maintained operant responding (rate response). Rats (n=7) were placed in a chamber consisting of two (one active) levers. Rats were trained to press a lever (left) for a food pellet under a multiple-cycle procedure. […] The active period was set on a FR10 schedule and rats could receive a maximum of 5 food pellets. The cue light was terminated either after 5 minutes or once 5 food pellets were delivered. After each active period (every 20 minutes), rats received the next dose of drug for a duration of 2 hours. Data (rate per minute) was collected using Graphic State 3.03 software and interface (Coulbourn Instruments Inc.)
(§1) Drugs. The following drugs were used: HZ166, KRM-II-18B, and KRM-II-81, and were dissolved in a mixture containing 20% Dimethyl sulfoxide (DMSO), 10% Emulphor-620 (Rhodia Inc.), and 70% of 0.9% saline. Flumazenil (purchased from Cayman Chemical Company, MI) was dissolved in a mixture containing 10% ethanol, 40% propylene glycol, and 50% sterile water. Midazolam (Akorn, Inc.) was dissolved in 0.9% saline. Doses were expressed as the weight of the drug in milligrams per kilogram of body weight and drugs were administered intraperitoneally.

Series [4] deals with Rats. As to the kind of experiment: Horizontal wire test. Type of series: in vivo. The conditions noted are these: three-assay comparison. How it is done:
Horizontal wire test. Rats (n=10) were lifted by the tail and allowed to grasp a horizontally strung wire with their forepaws and released. The inability to complete this task (within 3 seconds) was recorded 20 minutes after each injection of drug.
as §1

Molecules are shown by their SMILES.

T1 sequence (P14867 28-456): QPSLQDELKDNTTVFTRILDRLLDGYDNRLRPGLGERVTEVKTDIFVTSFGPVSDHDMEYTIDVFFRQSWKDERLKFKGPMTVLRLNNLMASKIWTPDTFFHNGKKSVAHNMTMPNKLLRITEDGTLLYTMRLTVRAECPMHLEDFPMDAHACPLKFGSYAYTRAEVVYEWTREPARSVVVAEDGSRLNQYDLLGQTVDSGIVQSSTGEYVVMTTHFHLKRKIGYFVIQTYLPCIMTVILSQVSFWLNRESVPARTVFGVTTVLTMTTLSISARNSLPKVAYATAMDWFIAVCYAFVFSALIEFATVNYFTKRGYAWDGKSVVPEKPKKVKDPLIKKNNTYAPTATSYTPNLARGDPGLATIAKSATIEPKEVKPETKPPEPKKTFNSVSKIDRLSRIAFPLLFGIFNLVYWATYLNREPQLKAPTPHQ
T1 sequence (P28472 26-473 partner): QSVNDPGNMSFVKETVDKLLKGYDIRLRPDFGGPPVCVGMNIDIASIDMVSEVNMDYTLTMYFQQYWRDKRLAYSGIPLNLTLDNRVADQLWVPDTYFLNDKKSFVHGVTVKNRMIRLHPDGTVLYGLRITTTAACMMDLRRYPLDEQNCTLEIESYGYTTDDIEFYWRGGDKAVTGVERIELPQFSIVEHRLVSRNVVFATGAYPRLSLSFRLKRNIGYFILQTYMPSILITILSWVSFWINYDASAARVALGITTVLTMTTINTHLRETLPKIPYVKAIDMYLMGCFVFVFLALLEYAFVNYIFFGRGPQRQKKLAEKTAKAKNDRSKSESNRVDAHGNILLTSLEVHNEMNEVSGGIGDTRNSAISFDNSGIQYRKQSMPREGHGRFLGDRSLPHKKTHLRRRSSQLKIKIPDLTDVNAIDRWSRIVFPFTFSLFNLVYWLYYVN
T1 sequence (P18507 40-475): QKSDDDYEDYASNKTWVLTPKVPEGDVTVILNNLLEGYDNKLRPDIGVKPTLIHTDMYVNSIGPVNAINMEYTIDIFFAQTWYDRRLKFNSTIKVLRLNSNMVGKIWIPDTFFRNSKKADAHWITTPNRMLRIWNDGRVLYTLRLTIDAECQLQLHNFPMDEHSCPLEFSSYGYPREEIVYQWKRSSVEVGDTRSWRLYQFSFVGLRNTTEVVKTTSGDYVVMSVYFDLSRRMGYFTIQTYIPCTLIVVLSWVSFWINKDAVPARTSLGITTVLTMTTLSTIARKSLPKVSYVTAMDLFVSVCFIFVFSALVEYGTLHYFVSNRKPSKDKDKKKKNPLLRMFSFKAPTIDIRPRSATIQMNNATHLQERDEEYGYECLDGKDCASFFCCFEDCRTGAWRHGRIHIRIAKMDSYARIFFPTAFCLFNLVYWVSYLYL

As to `C#Cc1ccc2c(c1)C(c1ccccc1F)=NCc1c(-c3cnco3)ncn1-2` [KRM-II-18B, 5-(8-Ethynyl-6-(2-fluorophenyl)-4H-benzo[f]imidazo[1,5-a][1,4]diazepin-3-yl)oxazole], the EC50 in series [1] is more than 20 µM. For the same compound, the “Dog Liver microsome stability (reported in % remaining)” value in series [2] turned out to be 87 % remaining. The “rate-suppressing activity, doses relative to antihyperalgesic doses” value with Rats [3] is “much larger doses”. In the series with Rats [4], the “muscle-relaxant activity, doses relative to antihyperalgesic doses” value is “much larger doses”.
In the case of `C#Cc1ccc2c(c1)C(c1ccccn1)=NCc1c(-c3cnco3)ncn1-2` [KRM-II-81, 5-(8-Ethynyl-6-(pyridin-2-yl)-4H-benzo[f]imidazo[1,5-a][1,4]diazepin-3-yl)oxazole], in series [1], the EC50 was more than 20 µM. In addition, the “Dog Liver microsome stability (reported in % remaining)” value in series [2] worked out at 94 % remaining. The “Dog % Metabolized” value in series [2] (in vitro metabolism, dog) was determined as 5.9%. The “rate-suppressing activity, doses relative to antihyperalgesic doses” value in the series on Rats [3] is on record as “much larger doses”. Further, the “muscle-relaxant activity, doses relative to antihyperalgesic doses” value in the series on Rats [4] is listed as “much larger doses”.
